Laboratory results from patent US4994376A, “Detection of bacteroides gingivalis” (priority 1987, dated 1991).
Several values for one entry are separate records, joined by “and”; a condition that tells them apart may be missing. Equal entries are not always repeated. Where two headings read alike, the source gives them in different places. Numbered stars: 1 amine (or outer) side, 2 acyl side, 3 side chain; on linkers, the order of the positions; unused ones are H or OH. Peptide text beside a SMILES is read from it. CO = O=C([*:1])[*:2]

Columns and labels:
[1] = system: B. gingivalis N-CBz-Gly-Gly-Arg peptidase; test: Effect of inhibitors and enhancers on B. gingivalis peptidase activity; assay type: biochemical, Bacteroides gingivalis; details: for Inhibition of B. gingivalis enzyme activity by metals: high concentrations
B. melaninogenicus = test: Aminopeptidase activity on β-naphthylamide substrates; assay type: biochemical
Description: (§1) The enzyme activity was measured by the chromogenic properties of N-CBz-glycyl-glycyl-L-arginine-β-naphthylamide which upon hydrolysis gives a visible color. The aminopeptidase activities listed in the table reflect the nanomoles of β-naphthylamine liberated after 60 minutes under the conditions described below.
(§2) After mixing, the solution is incubated for 1 hour at 37° C. and then 0.4 ml of a solution of stabilized diazonium salt, Fast Garnet GBC (0.5 mg/ml) in a 1M acetic acid buffer (pH 4.2), containing 10% Tween 20 was added to the mixture. After standing for 15 minutes at room temperature, the color reaction can be read manually by comparison with standard solutions or the absorbancy can be determined using a spectrophotometer at 525 nm. The reaction mixture without enzyme solution is used as a control.

C. sputigena = test: as above; assay type: biochemical
Description: as §1, §2

B. corporis = test: as above; assay type: biochemical
Description: as §1, §2

B. denticola = test: as above; assay type: biochemical
Description: as §1, §2

B. intermedius = test: as above; assay type: biochemical
Description: as §1, §2

Veillonella alcalesens = test: as above; assay type: biochemical
Description: as §1, §2
(§3) The enzyme activity and the aminopeptidase activities were determined in the manner described above in regard to Table I.

A. suis = test: as above; assay type: biochemical
Description: as §1, §2, §3

A. equuli = test: as above; assay type: biochemical
Description: as §1, §2, §3

F. periodonticum = test: as above; assay type: biochemical
Description: as §1, §2, §3

S. salivarius = test: as above; assay type: biochemical
Description: as §1, §2, §3

L. fermentum = test: as above; assay type: biochemical
Description: as §1, §2, §3

Campylobacter sputorum = assay type: biochemical
Description: as §1, §2, §3

A. viscosus = assay type: biochemical
Description: as §1, §2, §3

Actinomyces israeli = assay type: biochemical
Description: as §1, §2, §3

Fusobacterium nucleatum = assay type: biochemical
Description: as §1, §2, §3

Eikenella corrodens = assay type: biochemical
Description: as §1, §2, §3

"Anaerobic vibrio" = assay type: biochemical
Description: as §1, §2, §3

Veillonella sp. = assay type: biochemical
Description: as §1, §2, §3

S. sanguis = assay type: biochemical
Description: as §1, §2, §3

S. mutans = assay type: biochemical
Description: as §1, §2, §3

A. seminis = assay type: biochemical
Description: as §1, §2, §3

B. mel. ss. intermedius = assay type: biochemical
Description: as §1, §2

Capnocytophaga sp. = assay type: biochemical
Description: as §1, §2

B. levii = assay type: biochemical
Description: as §1, §2

[2] = system: Capnocytophaga gingivalis; assay type: biochemical
Description: as §1, §2

C. ochracea = assay type: biochemical
Description: as §1, §2

Haemophilus aphrophilus = test: Aminopeptidase activity on β-naphthylamide substrates; assay type: biochemical
Description: as §1, §2, §3

Lactobacillus casei = test: as above; assay type: biochemical
Description: as §1, §2, §3

V. parvula = assay type: biochemical
Description: as §1, §2, §3

Bacteroides gingivalis = assay type: biochemical
Description: as §1, §2

[3] = strain D31A-24, β-naphthylamine liberated after 60 minutes, 37° C.
[4] = strain ATCC 25845, β-naphthylamine liberated after 60 minutes, 37° C.
[5] = strain ATCC 33123, β-naphthylamine liberated after 60 minutes, 37° C.
[6] = strain ATCC 33547, β-naphthylamine liberated after 60 minutes, 37° C.
[7] = strain ATCC 33185, β-naphthylamine liberated after 60 minutes, 37° C.
[8] = strain ATCC 25611, β-naphthylamine liberated after 60 minutes, 37° C.
[9] = strain ATCC 11748, β-naphthylamine liberated after 60 minutes, 37° C.
[10] = strain ATCC 15557, β-naphthylamine liberated after 60 minutes, 37° C.
[11] = strain ATCC 19392, β-naphthylamine liberated after 60 minutes, 37° C.
[12] = strain ATCC 13252, β-naphthylamine liberated after 60 minutes, 37° C.
[13] = strain ATCC 19415, β-naphthylamine liberated after 60 minutes, 37° C.
[14] = strain NCTC 5908, β-naphthylamine liberated after 60 minutes, 37° C.
[15] = strain EK1-15, β-naphthylamine liberated after 60 minutes, 37° C.
[16] = strain ATCC 9759, β-naphthylamine liberated after 60 minutes, 37° C.
[17] = strain ATCC 25975, β-naphthylamine liberated after 60 minutes, 37° C.
[18] = strain ATCC 7469, β-naphthylamine liberated after 60 minutes, 37° C.
[19] = strain ATCC 11578, β-naphthylamine liberated after 60 minutes, 37° C.
[20] = strain ATCC 11582, β-naphthylamine liberated after 60 minutes, 37° C.
[21] = strain ATCC 11581, β-naphthylamine liberated after 60 minutes, 37° C.

[Zn] [zinc]
Inhibition of B. gingivalis enzyme activity by metals [1]: inhibited

O=C(O)c1cc[c]([Hg][Cl])cc1 [p-chloromercuribenzoic acid]
Inhibition of B. gingivalis N-CBz-glycyl-glycyl-arginylpeptidase enzyme activity [1]: inhibited

NCC(=O)N1CCC[C@H]1C(=O)O [Gly-Pro, Glycyl-proline] (H-Gly-Pro-OH)
Aminopeptidase activity (B. melaninogenicus): 26
Aminopeptidase activity (C. sputigena): 16
Aminopeptidase activity (B. corporis): 54
Aminopeptidase activity (B. denticola): 17
Aminopeptidase activity (B. intermedius): 10
Aminopeptidase activity (Veillonella alcalesens): 0
Aminopeptidase activity (A. suis): 0
Aminopeptidase activity (A. equuli): 0
Aminopeptidase activity (F. periodonticum): 1
Aminopeptidase activity (S. salivarius): 105 and 90
Aminopeptidase activity (L. fermentum): 5
Aminopeptidase activity (Campylobacter sputorum): 1
Aminopeptidase activity (A. viscosus): 0
Aminopeptidase activity (Actinomyces israeli): 0
Aminopeptidase activity (Fusobacterium nucleatum): 0
Aminopeptidase activity (Fusobacterium nucleatum; [3]): 0 nmol
Aminopeptidase activity (Eikenella corrodens): 0
Aminopeptidase activity ("Anaerobic vibrio"): 0
Aminopeptidase activity (Veillonella sp.): 0
Aminopeptidase activity (S. sanguis): 75 and 109
Aminopeptidase activity (S. mutans): 22
Aminopeptidase activity (A. seminis): 0
Aminopeptidase activity (B. mel. ss. intermedius): 15 and 22 and 27
Aminopeptidase activity (Capnocytophaga sp.): 2
Aminopeptidase activity (B. levii): 22 and 17
Aminopeptidase activity [2]: 19
Aminopeptidase activity (C. ochracea): 11

[Co] [cobalt]
Inhibition of B. gingivalis enzyme activity by metals [1]: inhibited

CC(=O)N[C@@H](CC(C)C)C(=O)N[C@@H](CC(C)C)C(=O)N[C@H](C=O)CCCNC(=N)N [leupeptin]
Inhibition of B. gingivalis N-CBz-glycyl-glycyl-arginylpeptidase enzyme activity [1]: inhibited

[Cd] [cadmium]
Sensitivity of B. gingivalis enzyme activity to heavy metal ions [1]: sensitive
Inhibition of B. gingivalis enzyme activity by metals [1]: inhibited

mercury
Sensitivity of B. gingivalis enzyme activity to heavy metal ions [1]: sensitive
Inhibition of B. gingivalis enzyme activity by metals [1]: inhibited

C[S+](C)[O-] [DMSO, dimethyl-sulfoxide]
Inhibition of B. gingivalis N-CBz-glycyl-glycyl-arginylpeptidase enzyme activity [1]: inhibited

C[C@H](NC(=O)[C@@H](N)CCCCN)C(=O)O [Lys-Ala, Lysyl-alanine] (H-Lys-Ala-OH)
Aminopeptidase activity (B. melaninogenicus): 78
Aminopeptidase activity (C. sputigena): 36
Aminopeptidase activity (B. corporis): 68
Aminopeptidase activity (B. denticola): 89
Aminopeptidase activity (B. intermedius): 50
Aminopeptidase activity (Veillonella alcalesens): 0
Aminopeptidase activity (A. suis): 0
Aminopeptidase activity (A. equuli): 0
Aminopeptidase activity (Haemophilus aphrophilus): 0
Aminopeptidase activity (F. periodonticum): 0
Aminopeptidase activity (Lactobacillus casei): 0
Aminopeptidase activity (L. fermentum): 2
Aminopeptidase activity (Campylobacter sputorum): 0
Aminopeptidase activity (A. viscosus): 0
Aminopeptidase activity (Actinomyces israeli): 0
Aminopeptidase activity (Fusobacterium nucleatum; [3]): 0 nmol
Aminopeptidase activity (Eikenella corrodens): 0
Aminopeptidase activity ("Anaerobic vibrio"): 0
Aminopeptidase activity (V. parvula): 0
Aminopeptidase activity (Veillonella sp.): 0
Aminopeptidase activity (S. mutans): 2
Aminopeptidase activity (A. seminis): 0
Aminopeptidase activity (Capnocytophaga sp.): 14
Aminopeptidase activity (B. levii): 45 and 48
Aminopeptidase activity [2]: 54
Aminopeptidase activity (C. ochracea): 50
Aminopeptidase activity (Bacteroides gingivalis): 78 and 77 and 50 and 63 and 46 and 43

CC(C)[C@H](NC(=O)[C@H](CCCNC(=N)N)NC(=O)N[C@@H](Cc1ccccc1)C(=O)O)C(=O)N[C@H](C=O)CCCNC(=N)N [antipain] ({Phe-CO}-Arg-Val-Arg-aldehyde)
Inhibition of B. gingivalis N-CBz-glycyl-glycyl-arginylpeptidase enzyme activity [1]: inhibited

[Cu] [copper]
Sensitivity of B. gingivalis enzyme activity to heavy metal ions [1]: sensitive
Inhibition of B. gingivalis enzyme activity by metals [1]: inhibited

O=S(=O)(F)Cc1ccccc1 [phenylmethylsulfonylfluoride]
Inhibition of B. gingivalis N-CBz-glycyl-glycyl-arginylpeptidase enzyme activity [1]: inhibited

N=C(N)NCCC[C@H](NC(=O)[C@@H](N)CCCNC(=N)N)C(=O)O [Arg-Arg, Arginyl-arginine] (H-Arg-Arg-OH)
Aminopeptidase activity (B. melaninogenicus; [4]): 24 nmol
Aminopeptidase activity (C. sputigena; [5]): 18 nmol
Aminopeptidase activity (B. corporis; [6]): 4 nmol
Aminopeptidase activity (B. denticola; [7]): 16 nmol
Aminopeptidase activity (B. intermedius; [8]): 15 nmol
Aminopeptidase activity (Veillonella alcalesens; [9]): 0 nmol
Aminopeptidase activity (A. suis; [10]): 0 nmol
Aminopeptidase activity (A. equuli; [11]): 0 nmol
Aminopeptidase activity (Haemophilus aphrophilus; [12]): 1 nmol
Aminopeptidase activity (Haemophilus aphrophilus; [13]): 1 nmol
Aminopeptidase activity (Haemophilus aphrophilus; [14]): 0 nmol
Aminopeptidase activity (F. periodonticum; [15]): 1 nmol
Aminopeptidase activity (S. salivarius; [16]): 24 nmol
Aminopeptidase activity (S. salivarius; [17]): 15 nmol
Aminopeptidase activity (Lactobacillus casei; [18]): 1 nmol
Aminopeptidase activity (Lactobacillus casei; [19]): 1 nmol
Aminopeptidase activity (Lactobacillus casei; [20]): 0 nmol
Aminopeptidase activity (L. fermentum; [21]): 0 nmol
Aminopeptidase activity (Campylobacter sputorum): 1
Aminopeptidase activity (A. viscosus): 0
Aminopeptidase activity (Actinomyces israeli): 0
Aminopeptidase activity (Fusobacterium nucleatum): 1
Aminopeptidase activity (Fusobacterium nucleatum; [3]): 2 nmol
Aminopeptidase activity (Eikenella corrodens): 0
Aminopeptidase activity ("Anaerobic vibrio"): 0
Aminopeptidase activity (V. parvula): 0
Aminopeptidase activity (Veillonella sp.): 0
Aminopeptidase activity (S. mutans): 1
Aminopeptidase activity (A. seminis): 0
Aminopeptidase activity (Capnocytophaga sp.): 0
Aminopeptidase activity [2]: 65
Aminopeptidase activity (C. ochracea): 71

N=C(N)NCCC[C@H](NC(=O)CN)C(=O)O [Gly-Arg, Glycyl-arginine] (H-Gly-Arg-OH)
Aminopeptidase activity (B. melaninogenicus; [4]): 4 nmol
Aminopeptidase activity (C. sputigena; [5]): 8 nmol
Aminopeptidase activity (B. corporis; [6]): 0 nmol
Aminopeptidase activity (B. denticola; [7]): 4 nmol
Aminopeptidase activity (B. intermedius; [8]): 22 nmol
Aminopeptidase activity (Veillonella alcalesens; [9]): 0 nmol
Aminopeptidase activity (A. suis; [10]): 0 nmol
Aminopeptidase activity (A. equuli; [11]): 0 nmol
Aminopeptidase activity (Haemophilus aphrophilus; [12]): 0 nmol
Aminopeptidase activity (Haemophilus aphrophilus; [13]): 0 nmol
Aminopeptidase activity (Haemophilus aphrophilus; [14]): 0 nmol
Aminopeptidase activity (F. periodonticum; [15]): 0 nmol
Aminopeptidase activity (S. salivarius; [16]): 0 nmol
Aminopeptidase activity (S. salivarius; [17]): 0 nmol
Aminopeptidase activity (Lactobacillus casei; [18]): 0 nmol
Aminopeptidase activity (Lactobacillus casei; [19]): 0 nmol
Aminopeptidase activity (Lactobacillus casei; [20]): 1 nmol
Aminopeptidase activity (L. fermentum; [21]): 0 nmol
Aminopeptidase activity (Campylobacter sputorum): 0
Aminopeptidase activity (Actinomyces israeli): 0
Aminopeptidase activity (Fusobacterium nucleatum): 0
Aminopeptidase activity (Fusobacterium nucleatum; [3]): 1 nmol
Aminopeptidase activity (Eikenella corrodens): 2
Aminopeptidase activity ("Anaerobic vibrio"): 0
Aminopeptidase activity (V. parvula): 0
Aminopeptidase activity (Veillonella sp.): 0
Aminopeptidase activity (S. sanguis): 3
Aminopeptidase activity (S. mutans): 0
Aminopeptidase activity (A. seminis): 0
Aminopeptidase activity (B. mel. ss. intermedius): 13 and 9
Aminopeptidase activity (Capnocytophaga sp.): 20
Aminopeptidase activity [2]: 6
Aminopeptidase activity (C. ochracea): 11
